Measurements: ChEMBL document CHEMBL5346927, “Discovery of a novel 1H-pyrazole- [3,4-b] pyridine-based lysine demethylase 5B inhibitor with potential anti-prostate cancer activity that perturbs the phosphoinositide 3-kinase/AKT pathway” (Eur J Med Chem, 2023)

Tested on: PC-3
Assay: Inhibition of PI3K/AKT pathway in human PC-3 cells assessed as decrease in P110alpha level at 20 uM by Western blot analysis relative to control
Type: cell-based

CN1CCN(CCNC(=O)c2cc(-c3ccc4ccccc4c3)nc3c2cnn3-c2ccccc2)CC1 gave an inhibition of 80%.
